Assays:
[1] = system: malignant cell lines with high HDAC and CTSL activity (COGA-10, HCA-7, HT29, HCT116); experiment: MTS cell viability assay, malignant colon cancer cell lines; format: cell-based; settings: Homo sapiens, 120 h, 5 d, read-out: IC50, inhibition of cell viability
Experimental: (§1) FIG. 13. Inhibition of cell viability by BKAc-Puro is presented in dose-response curve format for the same cell lines as in FIG. 8. The cell lines were treated with DMSO or the indicated doses of agent (4.22, 8.44, 16.9, 33.8, 67.5, or 135 μM) for 5 d followed by MTS assay. Data represent mean values of triplicate measurements±s.d. (n=3). IC50 values were fit by logistic regression.
(§2) Cell number was determined by cell counting using improved Neubauer hemacytometer. Cell viability was calculated as the number of viable cells divided by the total number of cells using Trypan Blue Stain (Invitrogen) to distinguish non-viable cells. Data were obtained from duplicated samples with quadruplicate measurements. MTS based cell viability assay was performed using CellTiter 96 Aqueous Cell Proliferation Assay (Promega) according to the manufacturer's instruction. […] After additional 2-3 h incubation, the absorbance of the formazan at 490 nm was measured by the microplate reader. […] Determination of non-viable cells using PI staining was performed by adding 1 μg/ml of PI solution (Sigma) to the cell culture, prior to the examination under fluorescence microscopy (Axiovert 3, Carl Zeiss) through a×32 objective equipped with a digital imaging processor (Infinity 3, Lumenera).

[2] = system: non-malignant Caco-2 cells; experiment: MTS cell viability assay, Caco-2; format: cell-based, human
Experimental: as §1
FIG. 14. Inhibition of cell viability by parental Puro. The cell lines were treated with the indicated doses of Puro (0, 1.1, 2.1, 4.2, or 8.4 μM) for 3 d followed by MTS assay. Data represent mean values of triplicate measurements±s.d.
Cell number was determined by cell counting using improved Neubauer hemacytometer. Cell viability was calculated as the number of viable cells divided by the total number of cells using Trypan Blue Stain (Invitrogen) to distinguish non-viable cells. Data were obtained from duplicated samples with quadruplicate measurements. MTS based cell viability assay was performed using CellTiter 96 Aqueous Cell Proliferation Assay (Promega) according to the manufacturer's instruction. Either 1 μl of DMSO alone or variable concentrations of BKAc-Puro or Puro in DMSO were added to the cell lines seeded at 5×10^4 cells per well in 96-well tissue culture plates in 100 μl of the growth medium, followed by 3-5 d incubation at 37° C. with 5% CO2 atmosphere. Then 20 μl of the MTS reagent was added to each well. After additional 2-3 h incubation, the absorbance of the formazan at 490 nm was measured by the microplate reader. Percent cell viability was expressed relative to the wells containing cells treated with DMSO alone. Data were obtained from triplicate measurements. […] Determination of non-viable cells using PI staining was performed by adding 1 μg/ml of PI solution (Sigma) to the cell culture, prior to the examination under fluorescence microscopy (Axiovert 3, Carl Zeiss) through a×32 objective equipped with a digital imaging processor (Infinity 3, Lumenera).

[3] = system: CCD841-CoN; experiment: Cell viability assays, normal colon cells; format: cell-based, human; settings: negative control cells
Experimental: (§3) FIG. 15. Inhibition of cell viability by BKAc-Puro. The cell lines were grown and analyzed as in FIG. 12.
FIG. 18. Selective cytotoxicity by BKAc-Puro on pancreatic cancer cells. Pancreatic cancer (BXPC-3 and Miapaca-2), colon cancer (HCT116 as a positive control sensitive to the drug), and normal colon (CCD841-CoN as a negative control) cells were grown and analyzed as in FIG. 13. BKAc-Puro can effectively cause cell death on pancreatic cancer cells (BXPC-3 and MiaPaca-2) that are known to resistant to conventional chemotherapeutic drugs including 5-FU and Gemicitabine.
(§4) FIG. 19. Selective cytotoxicity by BKAc-Puro on prostate cancer cells. Prostate cancer (PC-3, DU-145, and LNCaP), colon cancer (HCT116 as a positive control sensitive to the drug), and normal colon (CCD841-CoN as a negative control) cells were grown and analyzed as in FIG. 13. BKAc-Puro can effectively cause cell death on prostate cancer cells.
Cell number was determined by cell counting using improved Neubauer hemacytometer. Cell viability was calculated as the number of viable cells divided by the total number of cells using Trypan Blue Stain (Invitrogen) to distinguish non-viable cells. Data were obtained from duplicated samples with quadruplicate measurements. […] After additional 2-3 h incubation, the absorbance of the formazan at 490 nm was measured by the microplate reader. […]

[4] = system: Eph4; experiment: Cell viability assays (MTS, PI staining), normal mammary epithelial cells; format: cell-based, mouse
Experimental: as §3
(§5) FIG. 17. Selective cytotoxicity by BKAc-Puro on breast cancer cells. Normal mammary gland epithelial cells (Eph4) and breast cancer cells (MCF-7 and MDA-MB-231) were grown and analyzed as in FIG. 10. BF, bright field. PI, fluorescent PI channel. BKAc-Puro can selectively cause cell death in breast cancer cells (MCF-7 and MDA-MB-231) while leaving normal Eph4 cells unharmed.
as §2

[5] = system: pancreatic cancer cells (BXPC-3 and MiaPaca-2); experiment: Cell viability assay, pancreatic cancer cells; format: cell-based, human; settings: MTS
Experimental: FIG. 16. Anticancer effect of BKAc-Puro on pancreatic cell lines. The cell lines were treated with DMSO (vehicle), BKAc-Puro (54 μM), or Puro (4.2 μM) for 5 d followed by MTS assay. Normal Eph4 (non-pancreatic) cells are shown as control. Data represent mean values of triplicate measurements±s.d.
FIG. 18. Selective cytotoxicity by BKAc-Puro on pancreatic cancer cells. Pancreatic cancer (BXPC-3 and Miapaca-2), colon cancer (HCT116 as a positive control sensitive to the drug), and normal colon (CCD841-CoN as a negative control) cells were grown and analyzed as in FIG. 13. […]
as §2, with “cells.” for “cells. Data were obtained from duplicated samples with quadruplicate measurements. MTS based cell viability assay was performed using CellTiter 96 Aqueous Cell Proliferation Assay (Promega) according to the manufacturer's instruction.”

[6] = system: malignant colon cancer cells with high HDAC and CTSL activity; experiment: Cell counting, trypan blue exclusion and PI staining, malignant colon cancer cell lines; format: cell-based, human; settings: 54 μM
Experimental: FIG. 9. The colon cancer cell lines were grown for 5 d either with vehicle control DMSO (gray symbols) or 54 μM BKAc-Puro (red and blue symbols), and cell number was determined at the indicated time points.
FIG. 10. The cell lines were grown as in FIG. 8, cell viability was determined by trypan blue at the indicated time points, and is presented as the percentage of live cells treated with vehicle control (gray symbols) or BKAc-Puro (red and blue symbols).
FIG. 11. The cell lines were grown as in FIG. 8, and dead cells were determined after 80 h by PI signal under fluorescent microscope. BF, bright field. PI, fluorescent PI channel.
as §2, with “measurements.” for “measurements. MTS based cell viability assay was performed using CellTiter 96 Aqueous Cell Proliferation Assay (Promega) according to the manufacturer's instruction.”

[7] = system: breast cancer cells (MCF-7 and MDA-MB-231); experiment: PI staining cytotoxicity, breast cancer cells; format: cell-based
Experimental: as §5, §2

[8] = system: prostate cancer cells (PC-3, DU-145 and LNCaP); experiment: Cell viability assay, prostate cancer cells; format: cell-based; settings: dose-response, MTS
Experimental: as §4, §2

[9] = system: RPMI8226 cells; experiment: Live single cell detection by FACS, cell surface Puro; format: cell-based; settings: 20 μg/ml, 16 hr, anti-puro antibody (12D10) Alexa 647, FACS
Experimental: Cell surface detection of Puro by anti-puro antibody (12D10) conjugated to Alexa 647 (EMD Millipore). RPMI8226 cells were treated with Puro (0.25 μg/ml) or Boc-KAc-Puro (20 μg/ml) for 16 hr then harvested by centrifugation followed by two times wash using cold washing solution (0.1% BSA in PBS). Cells were resuspended in the same solution and incubated 30 min on ice with Alexa 647 conjugated mouse IgG2a anti-puromycin antibody (12D10). Cells were washed twice with the solution followed by FACS analysis (BD FACSCalibur). The specificity of the antibody was confirmed by using isotype control antibody (mouse IgG2a conjugated with Alexa 647).

Compound: COc1ccc(CC(NC(=O)C(CCCCNC(C)=O)NC(=O)OC(C)(C)C)C(=O)NC2C(O)[C@H](n3cnc4c(N(C)C)ncnc43)O[C@@H]2CO)cc1 (stereo partly drawn) [BKAc-Puro, N-[3′-(α-Amino-p-methoxyhydrocinnamamido)-3′-deoxy-N,N-dimethyldenosinyl)-N-α-(t-butoxycarbonyl]-N-ε-acetyl-L-lysineamide]
- IC50 [1]: ~10 µM
- Highest inactive dose relative to dose of parental Puro effective to Caco-2 cells ([2]; 135 μM BKAc-Puro vs parental Puro): more than 30 times
- IC50 ([2]; Homo sapiens, Caco-2, 120 h, MTS, 5 d, sufficient inhibition not achieved with doses up to 135 μM): > 135 µM
- Effect on normal colon cells [3]: relatively little effect
- Cell death [4]: unharmed
- Effect on cell viability ([5]; 54 μM, 5 d): also effective
- Cell death ([5]; dose-response): effectively caused cell death
- Cell death (trypan blue exclusion, morphology, PI staining) [6]: massive cell death
- Cell proliferation (cell number) ([6]; 5 d): impaired the proliferation
- Cell death [7]: selectively caused cell death
- Cell death [8]: effectively caused cell death
- Puro presentation on cell surface proteins [9]: confirmed

Source: patent publication US20160184459A1, “CANCER CELL SPECIFIC IMAGING PROBES AND METHODS OF USE” (THE RESEARCH FOUNDATION FOR THE STATE UNIVERSITY OF NEW YORK, priority 2013, published 2016)
